# Results reported in patent publication US9884849B2, “Fluorinated benzofuranyl-pyrimidine derivatives containing a sulfoximine group” (Bayer Pharma Aktiengesellschaft, priority 2014, dated 2018).
# pIC50: −log10 of the molar value. Read-outs that look alike come from different tables or passages of the source.
# What was measured:
# B16F10 cells = test: Proliferation assay B16F10 (Method 3); format: cell-based, mouse; settings: 4 days, crystal violet, read-out: Inhibition of Bc6F10 cell proliferation IC50
# Experimental: (§1) Cultivated tumour cells (HeLa, human cervical tumour cells, ATCC CCL-2; NCI-H460, human non-small cell lung carcinoma cells, ATCC HTB-177; A2780, human ovarian carcinoma cells, ECACC #93112519; DU 145, hormone-independent human prostate carcinoma cells, ATCC HTB-81; HeLa-MaTu-ADR, multidrug-resistant human cervical carcinoma cells, EPO-GmbH Berlin; Caco-2, human colorectal carcinoma cells, ATCC HTB-37; B16F10, mouse melanoma cells, ATCC CRL-6475) were plated at a density of 5,000 cells/well (DU145, HeLa-MaTu-ADR), 3,000 cells/well (NCI-H460, HeLa), 2,500 cells/well (A2780), 1,500 cells/well (Caco-2), or 1,000 cells/well (B16F10) in a 96-well multititer plate in 200 μL of their respective growth medium supplemented 10% fetal calf serum. After 24 hours, the cells of one plate (zero-point plate) were stained with crystal violet (see below), while the medium of the other plates was replaced by fresh culture medium (200 μl), to which the test substances were added in various concentrations (0 μM, as well as in the range of 0.001-10 μM; the final concentration of the solvent dimethyl sulfoxide was 0.5%). The cells were incubated for 4 days in the presence of test substances. Cell proliferation was determined by staining the cells with crystal violet: the cells were fixed by adding 20 μl/measuring point of an 11% glutaric aldehyde solution for 15 minutes at room temperature. After three washing cycles of the fixed cells with water, the plates were dried at room temperature. The cells were stained by adding 100 μl/measuring point of a 0.1% crystal violet solution (pH 3.0). After three washing cycles of the stained cells with water, the plates were dried at room temperature. The dye was dissolved by adding 100 μl/measuring point of a 10% acetic acid solution. The extinction was determined by photometry at a wavelength of 595 nm. The change of cell number, in percent, was calculated by normalization of the measured values to the extinction values of the zero-point plate (=0%) and the extinction of the untreated (0 μm) cells (=100%). The IC50 values (inhibitory concentration at 50% of maximal effect) were determined by means of a 4 parameter fit.
# CDK9/CycT1 = biological target: T1, CDK9/CycT1 (Homo sapiens, UniProt P50750); test: CDK9/CycT1 kinase assay (Method 1a, TR-FRET); format: biochemical; settings: 10 μM ATP; for Selectivity CDK9 over CDK2: IC50 (CDK2)/IC50 (CDK9): Methods 1a. and 2a.
# T1 construct: Recombinant full-length His-tagged human CDK9 and CycT1; His; purchased Invitrogen PV4131; host or cells: insect cells
# T1 sequence (P50750 whole entry): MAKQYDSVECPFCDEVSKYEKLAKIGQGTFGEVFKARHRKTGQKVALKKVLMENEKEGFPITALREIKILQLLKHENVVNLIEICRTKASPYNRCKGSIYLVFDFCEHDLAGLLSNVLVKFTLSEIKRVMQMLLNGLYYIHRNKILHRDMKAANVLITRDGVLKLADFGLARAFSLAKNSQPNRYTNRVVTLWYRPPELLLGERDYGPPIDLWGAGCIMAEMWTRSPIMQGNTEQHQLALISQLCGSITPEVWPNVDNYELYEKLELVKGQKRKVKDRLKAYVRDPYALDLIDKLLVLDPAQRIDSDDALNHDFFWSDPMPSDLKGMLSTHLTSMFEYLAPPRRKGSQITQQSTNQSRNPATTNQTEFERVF
# T1 sequence (O60563 whole entry partner): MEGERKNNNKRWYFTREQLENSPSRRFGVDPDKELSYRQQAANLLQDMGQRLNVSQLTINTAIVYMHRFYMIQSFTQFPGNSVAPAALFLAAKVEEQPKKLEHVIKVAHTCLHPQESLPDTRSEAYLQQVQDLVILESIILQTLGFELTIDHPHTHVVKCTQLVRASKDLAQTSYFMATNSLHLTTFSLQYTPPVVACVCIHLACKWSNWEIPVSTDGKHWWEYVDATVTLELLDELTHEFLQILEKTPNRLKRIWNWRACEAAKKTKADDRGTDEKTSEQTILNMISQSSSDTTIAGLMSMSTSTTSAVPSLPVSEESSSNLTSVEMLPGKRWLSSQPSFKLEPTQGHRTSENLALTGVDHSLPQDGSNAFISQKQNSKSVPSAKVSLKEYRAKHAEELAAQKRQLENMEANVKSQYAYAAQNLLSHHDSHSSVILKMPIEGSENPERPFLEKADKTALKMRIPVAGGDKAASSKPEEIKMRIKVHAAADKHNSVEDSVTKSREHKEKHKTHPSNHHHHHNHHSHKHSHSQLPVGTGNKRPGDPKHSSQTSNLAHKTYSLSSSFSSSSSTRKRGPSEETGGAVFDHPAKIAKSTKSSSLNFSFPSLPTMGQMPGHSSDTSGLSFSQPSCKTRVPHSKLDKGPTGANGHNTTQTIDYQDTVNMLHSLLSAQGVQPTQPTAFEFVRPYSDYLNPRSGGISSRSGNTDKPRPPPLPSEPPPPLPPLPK
# Source text: 1a. CDK9/CycT1 Kinase Assay:
# CDK9/CycT1-Inhibitory Activity of Compounds of the Present Invention was Quantified Employing the CDK9/CycT1 TR-FRET Assay as Described in the Following Paragraphs:
# Recombinant full-length His-tagged human CDK9 and CycT1, expressed in insect cells and purified by Ni-NTA affinity chromatography, were purchased from Invitrogen (Cat. No PV4131). As substrate for the kinase reaction biotinylated peptide biotin-Ttds-YISPLKSPYKISEG (C-terminus in amid form) was used which can be purchased e.g. form the company JERINI Peptide Technologies (Berlin, Germany). For the assay 50 nl of a 100 fold concentrated solution of the test compound in DMSO was pipetted into a black low volume 384 well microtiter plate (Greiner Bio-One, Frickenhausen, Germany), 2 μl of a solution of CDK9/CycT1 in aqueous assay buffer [50 mM Tris/HCl pH 8.0, 10 mM MgCl2, 1.0 mM dithiothreitol, 0.1 mM sodium ortho-vanadate, 0.01% (v/v) Nonidet-P40 (Sigma)] were added and the mixture was incubated for 15 min at 22° C. to allow pre-binding of the test compounds to the enzyme before the start of the kinase reaction. Then the kinase reaction was started by the addition of 3 μl of a solution of adenosine-tri-phosphate (ATP, 16.7 μM=>final conc. in the 5 μl assay volume is 10 μM) and substrate (1.67 μM=>final conc. in the 5 μl assay volume is 1 μM) in assay buffer and the resulting mixture was incubated for a reaction time of 25 min at 22° C. The concentration of CDK9/CycT1 was adjusted depending of the activity of the enzyme lot and was chosen appropriate to have the assay in the linear range, typical concentrations were in the range of 1 μg/mL. The reaction was stopped by the addition of 5 μl of a solution of TR-FRET detection reagents (0.2 μM streptavidine-XL665 [Cisbio Bioassays, Codolet, France] and 1 nM anti-RB(pSer807/pSer811)-antibody from BD Pharmingen [#558389] and 1.2 nM LANCE EU-W1024 labeled anti-mouse IgG antibody [Perkin-Elmer, product no. AD0077]) in an aqueous EDTA-solution (100 mM EDTA, 0.2% (w/v) bovine serum albumin in 100 mM HEPES/NaOH pH 7.0).
# The resulting mixture was incubated 1 h at 22° C. to allow the formation of complex between the phosphorylated biotinylated peptide and the detection reagents. Subsequently the amount of phosphorylated substrate was evaluated by measurement of the resonance energy transfer from the Eu-chelate to the streptavidine-XL. Therefore, the fluorescence emissions at 620 nm and 665 nm after excitation at 350 nm was measured in a HTRF reader, e.g. a Rubystar (BMG Labtechnologies, Offenburg, Germany) or a Viewlux (Perkin-Elmer). The ratio of the emissions at 665 nm and at […] was taken as the measure for the amount of phosphorylated substrate. The data were normalised (enzyme reaction without inhibitor=0% inhibition, all other assay components but no enzyme=100% inhibition).
# NCI-H460 cells = test: Proliferation assay NCI-H460 (Method 3); format: cell-based, human; settings: NCI-H460, 4 days, crystal violet, read-out: Inhibition of NCI-H460 cell proliferation IC50
# Experimental: as §1
# MOLM-13 cells = test: Proliferation assay MOLM-13 (Method 3); format: cell-based, human; settings: MOLM-13, 72-hour exposure, Cell Titre-Glo, read-out: Inhibition of MOLM-13 cell proliferation IC50
# Experimental: Non-adherent MOLM-13 human acute myeloid leukemia cells (DSMZ ACC 554) were seeded at a density of 5,000 cells/well in a 96-well multititer plate in 100 μL of growth medium supplemented 10% fetal calf serum. After 24 hours, cell viability of one plate (zero-point plate) was determined with the Cell Titre-Glo Luminescent Cell Viability Assay (Promega), while 50 μL of test compound containing medium was added to the wells of the other plates (final concentrations in the range of 0.001-10 μM and DMSO controls; the final concentration of the solvent dimethyl sulfoxide was 0.5%). Cell viability was assessed after 72-hour exposure with the Cell Titre-Glo Luminescent Cell Viability Assay (Promega). IC50 values (inhibitory concentration at 50% of maximal effect) were determined by means of a 4 parameter fit on measurement data which were normalized to vehicle (DMSO) treated cells (=100%) and measurement readings taken immediately before compound exposure (=0%).
SMILES,"pIC50 (B16F10 cells; Mus musculus, B16-F10, 96 h)",pIC50 (CDK9/CycT1),Selectivity CDK9 over CDK2: IC50 (CDK2)/IC50 (CDK9) (CDK9/CycT1),"pIC50 (NCI-H460 cells; Homo sapiens, NCI-H460, 96 h)","pIC50 (MOLM-13 cells; Homo sapiens, MOLM-13, 72 h)",pIC50 (B16F10 cells),pIC50 (NCI-H460 cells),pIC50 (MOLM-13 cells)
"CS(=O)(Cc1cc(F)cc(Nc2ncc(F)c(-c3ccc(F)c4ccoc34)n2)c1)=NC#N (single isomer, unassigned) [Example 8, [(3-Fluoro-5-{[5-fluoro-4-(4-fluoro-1-benzofuran-7-yl)pyrimidin-2-yl]amino}benzyl)(methyl)-oxido-λ^6-sulfanylidene]cyanamide]",7.25,8.80,39,6.92,7.47,–,–,–
"CS(=O)(Cc1cc(F)cc(Nc2ncc(F)c(-c3ccc(F)c4ccoc34)n2)c1)=NC#N (single isomer, unassigned) [Example 9, [(3-Fluoro-5-{[5-fluoro-4-(4-fluoro-1-benzofuran-7-yl)pyrimidin-2-yl]amino}benzyl)(methyl)-oxido-λ^6-sulfanylidene]cyanamide]",–,8.68,42,–,–,7.28,6.97,7.62
"CS(=N)(=O)Cc1cc(F)cc(Nc2ncc(F)c(-c3ccc(F)c4ccoc34)n2)c1 (single isomer, unassigned) [Example 11, 5-Fluoro-4-(4-fluoro-1-benzofuran-7-yl)-N-{3-fluoro-5-[(S-methylsulfonimidoyl)-methyl]-phenyl}-pyrimidin-2-amine]",–,–,–,7.08,–,7.35,–,–
"Cc1cc(CS(C)(=N)=O)cc(Nc2ncc(F)c(-c3ccc(F)c4ccoc34)n2)c1 (racemic) [Example 16, (rac)-5-Fluoro-4-(4-fluoro-1-benzofuran-7-yl)-N-{3-methyl-5-[(S-methylsulfonimidoyl)-methyl]phenyl}pyrimidin-2-amine]",7.09,8.31,16,6.92,7.48,–,–,–
"CS(=O)(Cc1cc(F)cc(Nc2ncc(F)c(-c3ccc(F)c4ccoc34)n2)c1)=NC#N (racemic) [Example 7, (rac)-[(3-Fluoro-5-{[5-fluoro-4-(4-fluoro-1-benzofuran-7-yl)pyrimidin-2-yl]amino}benzyl)(methyl)-oxido-λ^6-sulfanylidene]cyanamide]",7.19,8.39,14,6.98,7.77,–,–,–
"CS(=N)(=O)Cc1cc(F)cc(Nc2ncc(F)c(-c3ccc(F)c4ccoc34)n2)c1 (racemic) [Example 10, (rac)-5-Fluoro-4-(4-fluoro-1-benzofuran-7-yl)-N-{3-fluoro-5-[(S-methylsulfonimidoyl)-methyl]-phenyl}-pyrimidin-2-amine]",7.24,8.51,16,6.95,7.43,–,–,–
"Cc1cc(CS(C)(=O)=NC#N)cc(Nc2ncc(F)c(-c3ccc(F)c4ccoc34)n2)c1 (racemic) [Example 13, (rac)-[(3-{[5-Fluoro-4-(4-fluoro-1-benzofuran-7-yl)pyrimidin-2-yl]amino}-5-methylbenzyl)-(methyl)oxido-λ^6-sulfanylidene]cyanamide]",7.31,–,–,6.93,–,–,–,–

# The remaining lines, values ahead:
"pIC50 (B16F10 cells; Mus musculus, B16-F10, 96 h)",pIC50 (CDK9/CycT1),Selectivity CDK9 over CDK2: IC50 (CDK2)/IC50 (CDK9) (CDK9/CycT1),"pIC50 (NCI-H460 cells; Homo sapiens, NCI-H460, 96 h)","pIC50 (MOLM-13 cells; Homo sapiens, MOLM-13, 72 h)",pIC50 (B16F10 cells),pIC50 (NCI-H460 cells),pIC50 (MOLM-13 cells),SMILES
6.68,8.34,24,6.74,6.97,–,–,–,"CS(=N)(=O)Cc1cccc(Nc2ncc(F)c(-c3ccc(F)c4ccoc34)n2)c1 (racemic) [Example 4, (rac)-5-Fluoro-4-(4-fluoro-1-benzofuran-7-yl)-N-{3-[(S-methylsulfonimidoyl)-methyl]phenyl}-pyrimidin-2-amine]"
–,8.51,15,–,–,7.03,7.23,–,"CS(=N)(=O)Cc1cc(F)cc(Nc2ncc(F)c(-c3ccc(F)c4ccoc34)n2)c1 (single isomer, unassigned) [Example 12, 5-Fluoro-4-(4-fluoro-1-benzofuran-7-yl)-N-{3-fluoro-5-[(S-methylsulfonimidoyl)-methyl]-phenyl}-pyrimidin-2-amine]"
6.77,8.64,32,6.72,7.08,–,–,–,"CS(=O)(Cc1cccc(Nc2ncc(F)c(-c3ccc(F)c4ccoc34)n2)c1)=NC#N (racemic) [Example 1, (rac)-[(3-{[5-Fluoro-4-(4-fluoro-1-benzofuran-7-yl)pyrimidin-2-yl]amino}benzyl)(methyl)oxido-λ^6-sulfanylidene]cyanamide]"
6.59,8.43,24,6.46,6.94,–,–,–,"CS(=N)(=O)Cc1cccc(Nc2ncc(F)c(-c3ccc(F)c4ccoc34)n2)c1 (single isomer, unassigned) [Example 5, 5-Fluoro-4-(4-fluoro-1-benzofuran-7-yl)-N-{3-[(S-methylsulfonimidoyl)-methyl]-phenyl}-pyrimidin-2-amine]"
